Key:
[1] = M4N stability in 11-14 mg/mL PEG300/HP-β-CD solutions at room temperature (RP-HPLC); type: physicochemical; conditions: for Observed M4N: room temperature
Procedure: To support manufacturing specifications, this study examined the 24-hour room temperature stability of combinations of PEG300/HP-β-CD at varying M4N target concentrations. Stock samples of M4N stocks were prepared in 100% PEG 300 at drug concentrations of 33-56 mg/mL at 60° C. as follows.
M4N bulk drug was solubilized to concentrations of 33, 44, 48, 52, 55 and 56 mg/mL (w/w) in PEG 300 using the procedure set forth in Examples 13 and 16, following incubation of at least 2 hours at 60° C. Vigorous vortexing and mixing were necessary for complete solubilization of M4N above 44 mg/mL. The M4N stock solutions were filtered through a 0.45 μm SFCA filter and used within 30 minutes of preparation. Separately, a solution of 40% (w/v) HP-β-CD was prepared in sterile WFI and filtered. Combinations of the 40% HP-β-CD stock and the M4N/PEG 300 stocks were combined in 1.5 mL polypropylene microtubes.
The requisite amount of M4N stock was added to 40% HP-β-CD to yield the final concentrations of drug and excipients listed in Table 28. Samples were gently rotated (˜12 rpm) at room temperature. At 2 and 24 hours of incubation, samples were centrifuged 2 minutes at 13,000 rpm and 50 μL aliquots were removed for RP-HPLC analysis.

[2] = Solubility of M4N in non-ionic surfactants (Table 21, visual inspection); type: physicochemical
Procedure: A 10 mL solution of M4N at a concentration of about 60 mg/mL in Tween® 20 was made as follows. About 10 mL of Tween® 20 were added to a glass beaker containing a stir bar. The beaker was placed on a magnetic plate and the stir bar was set to stir at medium speed. About 600 mg of M4N were slowly added to the Tween® 20 in the center of the beaker with the aid of a spatula to prevent M4N from sticking to the beaker wall. The M4N/Tween® 20 mixture was stirred for 2 hr or until all M4N had dissolved or was uniformly suspended without any clumps being present. The M4N/Tween® 20 mixture was heated at about 60° C. for about 30 min. (or longer if a larger volume of solution was desired, for example, 1 hr at 60° C. for 500 mL of the M4N/Tween® 20 mixture), or longer as need to ensure complete dissolution of M4N. […] The final M4N/Tween® 20 solution was stored at room temperature and was kept protected from light. If crystals were to form during storage, the M4N/Tween® 20 solution could be heated again at 60° C. for about 1 hr, with stirring, on a hot magnetic plate or until all M4N was dissolved back in solution.
This process may be scaled up or down to obtain the requisite volume or concentration of M4N and the heating temperature may be increased or decreased to achieve dissolution of M4N. Formulations containing M4N in other non-ionic surfactant, ionic surfactants or amphiphilic molecules may be similarly made, such as, for example, by substituting Tween® 20 in the process described above with Tween® 80, other solubilizing agents, and combinations thereof.

[3] = tested on: Beagle dogs; conditions: dog, in vivo
Procedure: A single male dog was administered M4N (12.5 mg/mL) in 20% HP-β-CD/50% PEG 300 via IV infusion (10 mL/kg/hour). Increased pressure in the infusion line and test formulation leakage from the syringe occurred. […] Because the observations were considered severe, the animal was considered moribund and scheduled for euthanization.
The dog recovered within 1 hour and 15 minutes of dosing and presented no continued or additional adverse clinical signs.
An additional male and female were dosed at 150 mg/kg and then at 125 mg/kg. […] Both animals recovered within 1 hour of dosing and no additional important clinical signs were subsequently noted.
Two extra (naïve) dogs were added to the study design and dosed at 75 mg/kg/day at an infusion rate of 5 mL/kg/hour, for a total of 12 doses in a 13-day interval. […] Clinical observations included soft feces in the male and frothy white emesis in the female; these findings were infrequent or isolated incidences and are considered unrelated to treatment. […] Both dogs recovered from any noted clinical signs within 1 hour of dosing. […] No other treatment-related observations were noted.

[4] = 7-Day intravenous infusion study in Beagle dogs: toxicokinetic serum analysis; type: in vivo
Procedure: This study was conducted to evaluate the toxicokinetic profile of M4N formulated in 30% HP-β-CD and 25% PEG 300 when administered as a single intravenous infusion dose for seven consecutive days in beagle dogs. This study constitutes the first study of this particular formulation of M4N in dogs and was executed to evaluate the toxicity and compare tolerability of a diluted formulation (10 mg/mL versus 5 mg/mL).
A total of twelve beagle dogs (8 male/4 female) were dosed with M4N via a 54-minute (Group 2) or 108-minute (Groups 1, 3 and 4) intravenous infusion. All animals received seven doses, one per day over seven consecutive days.
The following parameters were evaluated: clinical observations and body weights. Test article analysis was performed on Study Days 1 and 7, blood samples (targeting a volume of 2.0 mL) were collected from each animal from an appropriate vessel at the following time points: […]

With `COc1ccc(C[C@@H](C)[C@@H](C)Cc2ccc(OC)c(OC)c2)cc1OC` [Formulation M4N, meso-1,4-bis(3,4-dimethoxyphenyl)-2,3-dimethylbutane] the “Observed M4N” value ([1]; 11 mg/mL M4N, 20% PEG300, 32% HP-β-CD, t = 2 hours) was 11.5 mg/mL, the “Observed M4N” value ([1]; 11 mg/mL M4N, 20% PEG300, 32% HP-β-CD, t = 24 hours) was 11.4 mg/mL and the “Observed M4N” value ([1]; 11 mg/mL M4N, 25% PEG300, 30% HP-β-CD, t = 2 hours) was 11.3 mg/mL. For the same compound, the “Observed M4N” value ([1]; 11 mg/mL M4N, 25% PEG300, 30% HP-β-CD, t = 24 hours) was 11.3 mg/mL, the “Observed M4N” value ([1]; 11 mg/mL M4N, 33% PEG300, 27% HP-β-CD, t = 2 hours) was 11.4 mg/mL and the “Observed M4N” value ([1]; 11 mg/mL M4N, 33% PEG300, 27% HP-β-CD, t = 24 hours) was 11.3 mg/mL. For the same compound, the “Observed M4N” value ([1]; 12 mg/mL M4N, 25% PEG300, 30% HP-β-CD, t = 2 hours) was 11.8 mg/mL, the “Observed M4N” value ([1]; 12 mg/mL M4N, 25% PEG300, 30% HP-β-CD, t = 24 hours) was 11.6 mg/mL and the “Observed M4N” value ([1]; 13 mg/mL M4N, 25% PEG300, 30% HP-β-CD, t = 2 hours) was 12.7 mg/mL. The “Observed M4N” value ([1]; 13 mg/mL M4N, 25% PEG300, 30% HP-β-CD, t = 24 hours) was 12.7 mg/mL, the “Observed M4N” value ([1]; 14 mg/mL M4N, 25% PEG300, 30% HP-β-CD, t = 2 hours) was 13.5 mg/mL and the “Observed M4N” value ([1]; 14 mg/mL M4N, 25% PEG300, 30% HP-β-CD, t = 24 hours) was 13.5 mg/mL. The stability ([1]; 11-14 mg/mL M4N, 25% PEG 300 and 30% HP-β-CD, 24 hours at room temperature) was “stable”, the “Stability at Room Temperature” value ([2]; 50% Tween ® 20, 50% PEG 400, M4N 30 mg/mL) was >3 days and the “Dissolution After Heating” value ([2]; 50% Tween ® 20, 50% PEG 400, M4N 30 mg/mL, heating at 65° C.) was “Y at 65 °C”. The “Stability at Room Temperature” value ([2]; 50% Tween ® 20, 50% PEG 400, M4N 40 mg/mL) was >3 days, the “Dissolution After Heating” value ([2]; 50% Tween ® 20, 50% PEG 400, M4N 40 mg/mL, heating at 65° C.) was “Y at 65 °C” and the “Stability at Room Temperature” value ([2]; 50% Tween ® 20, 50% PEG 400, M4N 50 mg/mL) was >3 days. For the same compound, the “Dissolution After Heating” value ([2]; 50% Tween ® 20, 50% PEG 400, M4N 50 mg/mL, heating at 65° C.) was “Y at 65 °C”, the “Stability at Room Temperature” value ([2]; 50% Tween ® 20, 50% PEG 400, M4N 60 mg/mL) was >3 days and the “Dissolution After Heating” value ([2]; 50% Tween ® 20, 50% PEG 400, M4N 60 mg/mL, heating at 65° C.) was “Y at 65 °C”. For the same compound, the “stable at room temperature” value ([2]; 50% Tween® 20 and 50% PEG 400, after cooling) was “more than 3 days”, the “Stability at Room Temperature” value ([2]; Tween ® 20 100% (v/v), M4N 1 mg/mL) was >7 days and the “Stability at Room Temperature” value ([2]; Tween ® 20 100% (v/v), M4N 10 mg/mL) was >7 days. For the same compound, the “Dissolution After Heating” value ([2]; Tween ® 20 100% (v/v), M4N 10 mg/mL, heating at 50° C.) was “Y at 50 °C”, the “Stability at Room Temperature” value ([2]; Tween ® 20 100% (v/v), M4N 20 mg/mL) was >7 days and the “Dissolution After Heating” value ([2]; Tween ® 20 100% (v/v), M4N 20 mg/mL, heating at 50° C.) was “Y at 50 °C”. For the same compound, the “Stability at Room Temperature” value ([2]; Tween ® 20 100% (v/v), M4N 40 mg/mL) was <3 days, the “Dissolution After Heating” value ([2]; Tween ® 20 100% (v/v), M4N 40 mg/mL, heating at 50° C.) was “Y at 50 °C” and the “Stability at Room Temperature” value ([2]; Tween ® 20 100% (v/v), M4N 60 mg/mL) was <3 days. For the same compound, the “Dissolution After Heating” value ([2]; Tween ® 20 100% (v/v), M4N 60 mg/mL, heating at 50° C.) was “Y at 50 °C”, the “Dissolution After Heating” value ([2]; Tween ® 20 100% (v/v), M4N 80 mg/mL, heating at 50° C.) was “Y at 50 °C” and the “Dissolution After Heating” value ([2]; Tween ® 20 100% (v/v), M4N 100 mg/mL, heating at 50° C.) was “Y at 50 °C”. The “Stability at Room Temperature” value ([2]; Tween ® 80 100% (v/v), M4N 1 mg/mL) was >3 days, the “Stability at Room Temperature” value ([2]; Tween ® 80 100% (v/v), M4N 10 mg/mL) was >3 days and the “Dissolution After Heating” value ([2]; Tween ® 80 100% (v/v), M4N 10 mg/mL, heating at 50° C.) was “Y at 50 °C”. For the same compound, the “Stability at Room Temperature” value ([2]; Tween ® 80 100% (v/v), M4N 50 mg/mL) was <1 days, the “Dissolution After Heating” value ([2]; Tween ® 80 100% (v/v), M4N 50 mg/mL, heating at 50° C.) was “Y at 50 °C” and the “stable at room temperature” value ([2]; Tween® 20, M4N 1 mg/mL) was “more than 7 days”. The “stable at room temperature” value ([2]; Tween® 20, M4N 10 mg/mL and 20 mg/mL) was “more than 7 days”, the “stable at room temperature” value ([2]; Tween® 20, M4N 40 mg/mL and 80 mg/mL) was “less than 3 days” and the solution upon cooling ([2]; Tween® 20, M4N 80 mg/mL and 100 mg/mL) was “becoming insoluble upon cooling”. The “concentrations at which M4N remained in solution after cooling” value ([2]; Tween® 20, dissolved at 50° C.) was “up to 60 mg/mL”, the “stable at room temperature” value ([2]; Tween® 80, M4N 1 mg/mL) was “more than 3 days” and the “stable at room temperature” value ([2]; Tween® 80, M4N 10 mg/mL) was “more than 3 days”. For the same compound, the “stable at room temperature” value ([2]; Tween® 80, M4N 50 mg/mL) was “less than 1 day”, the “concentrations at which M4N remained in solution after cooling” value ([2]; Tween® 80, dissolved at 50° C.) was “up to 50 mg/mL” and the “clinical signs following dosing” value [3] was “uncoordinated/unbalanced movements and frequent urination”. The “notable post dose observation” value [3] was “single observation of red-brown urine in the female on SD 7”, the “time to recovery after dosing” value [3] was 1 h and 0.25 h and the “peak test article concentration in serum” value ([4]; Group 2, 45 mg/kg (10 mg/mL), 54-minute IV infusion) was 33420 ng/mL. For the same compound, the “time of maximum concentration” value ([4]; Group 2, end of infusion) was 0.9 h, the “peak test article concentration in serum” value ([4]; Group 3, 90 mg/kg (10 mg/mL), 108-minute IV infusion) was 46704 ng/mL and the “peak test article concentration in serum” value ([4]; Group 4, 45 mg/kg (5 mg/mL), 108-minute IV infusion) was 18759 ng/mL. The “time of maximum concentration” value ([4]; Groups 3 and 4, end of infusion) was 1.8 h.
